Experimental data as given in US4540709A, “Method for treatment of diseases mediated by PAF using 5-allyl-2-(3,4-Dimethoxyphenyl)-3a,α-methoxy-3-methyl-2,3,3a,6-tet rahydro-6-oxobenzofuran” (Merck & Co., Inc., priority 1983, dated 1985).

Tests used:
[1] = tested on: PAF-induced cutaneous vascular permeability; experiment: Inhibition of PAF-induced increase of cutaneous vasopermeability, oral activity (Evans Blue); type: in vivo; details: guinea pig
From the text: The specific PAF-antagonistic activities are further established by an in vivo assay (modified procedure of Humphrey et al., Lab. Investigation 46, 422 (1982)) following the protocol described below:
Protocol for the evaluation of the oral activity of PAF antagonists or the inhibition of PAF-induced increase of vasopermeability by PAF-antagonists
I. Animal species: 5 guinea pigs (400-500 g)
0.5% (w/v) aqueous methylcellulose solution sodium nembutol
2% Evans Blue solution: 2 g of Evans Blue in 100 ml of pH 7.5 Tris-buffer solution
Tris-Buffer solution: 150 mM NaCl and 10 mM Tris in […] of water with pH adjusted to 7.5.
1. Weigh the guinea pigs. Label them as control, T1, T2, T3 and T4.
2. Fast the animals overnight.
3. Weigh the animals again after the fasting.
4. Ground and suspend a PAF antagonist such as compound (I) with intensive sonication in 3 ml of 0.5% aqueous methylcellulose solution.
5. Administer orally to each of the animals T1, T2, T3 and T4 an appropriate amount (in terms of mg/kg of bodyweight) of the antagonist solution from 4.), except the control animal which should receive only the 0.5% aq. methylcellulose solution.
6. Forty minutes after the oral administration, anesthetize the animals with sodium nembutol (0.75 ml/kg i.p.).
7. After 20 minutes or when tne anesthetics became effective, inject intracardially to each animal 2 ml/kg body weight of the 2% Evans Blue solution.
8. Wait for 10 minutes. In the meantime, shave the backs of the guniea pigs and get ready for the PAF injection. Select two rows of 5 (a total of ten) sites on the back of each animal and designate them as sites […]
______________________________________
and inject intracutaneously, in duplicate 0.1 ml of a PAF solution in Tris-buffer or 0.1 ml of the Tris-buffer itself (control) according to the following schedule: […]
Sites Solution to be injected […]
15. Measure the absorbance of each supernatant from Step (14) ("skin sample") as well as the plasma extract from Step (13) ("plasma sample") at 620 nm with a Cary 210 spectrophotometer (Varian, Palo Alto, Calif.). […]

H1 = experiment: Binding of H1 antagonist (3H-pyrilamine) to guinea pig brain membrane
guinea pig ileum = experiment: Histamine-induced ileum contraction in guinea pigs
human PMN = experiment: PAF-induced human PMN secretion; type: cell-based; details: in vitro
human platelets = experiment: PAF-induced platelet aggregation (human platelets); type: cell-based; details: in vitro
[2] = molecular target: T1, PAF specific receptor binding site on rabbit platelet plasma membranes (Oryctolagus cuniculus, UniProt G1TEI7); experiment: Inhibition of 3H-PAF binding to rabbit platelet plasma membrane; details: in vitro, 0° C., pH 7.5
T1 construct: from tissue; host or cells: rabbit platelet plasma membranes
Method: In vitro, compound (I) inhibits PAF-induced functions in both the cellular and the tissue levels by disturbing the PAF binding to its specific receptor site. The ability of compound (I) to inhibit the PAF binding to its specific receptor binding site on rabbit platelet plasma membranes was measured by an assay recently developed by us.
The inhibition of H^3 -PAF binding to the rabbit platelet plasma membrane by compound (I) was determined by a method employing isotopic labeling and filtration techniques. Generally, a series of Tris-buffered solutions of the selected antagonist at predetermined concentrations were prepared. […] Ten […] of scintillation solution (Aquasol 2, New England Nuclear, Connecticut) was added with stirring to each filter containing the washed residue, and the radioactivity of each resulting suspension was counted in a Packard Tri-Carb 460CD Liquid Scintillation System. Defining the counts from a test sample as "Total binding with antagonist"; the counts from the control sample C1, as "Total binding C1 "; and the counts from the control sample C2 as "non-specific binding C2 ", the percent inhibition of each test antagonist can be determined by the following equation: [formula]

guinea pig smooth muscle = experiment: PAF-induced guinea pig smooth muscle contraction; details: in vitro
rabbit platelets = experiment: PAF-induced platelet aggregation (rabbit platelets); type: cell-based; details: in vitro
[3] = tested on: guinea pig peritoneal PMN (polymorphonuclear leukocytes); experiment: PAF-induced guinea pig peritoneal PMN aggregation; type: cell-based; details: in vitro

T1 sequence (G1TEI7 1-342): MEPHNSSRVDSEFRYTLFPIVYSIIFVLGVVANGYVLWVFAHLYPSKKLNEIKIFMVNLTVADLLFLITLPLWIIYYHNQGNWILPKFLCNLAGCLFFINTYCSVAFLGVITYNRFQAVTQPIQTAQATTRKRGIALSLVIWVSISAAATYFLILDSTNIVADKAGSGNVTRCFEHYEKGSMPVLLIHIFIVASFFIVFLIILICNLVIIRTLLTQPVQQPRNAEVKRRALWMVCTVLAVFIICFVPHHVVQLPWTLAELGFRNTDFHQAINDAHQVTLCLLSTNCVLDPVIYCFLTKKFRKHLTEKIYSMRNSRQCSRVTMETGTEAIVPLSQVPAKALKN

inhibition of binding of H1 antagonist (3H-pyrilamine) (H1): do not inhibit
IC50 [2]: 174 nM
SMILES: C=CCC1=CC2(OC)C(=CC1=O)OC(c1ccc(OC)c(OC)c1)C2C (stereo not drawn) [Compound (I), 5-allyl-2-(3,4-dimethoxyphenyl)-3a,α-methoxy-3-methyl-2,3,3a,6-tetrahydro-6-oxobenzofuran]
% inhibition ([1]; 25 mg/kg P.O.): 43%
% inhibition ([1]; 50 mg/kg P.O.): 63%
ED50 ([1]; Cavia porcellus, po, P.O.): 30 mg/kg
inhibition of histamine-induced ileum contraction (guinea pig ileum): no or only minute inhibition
inhibition of PAF-induced PMN secretion (human PMN): inhibits
inhibition of PAF-induced platelet aggregation (human platelets): inhibits
inhibition of PAF-induced smooth muscle contraction (guinea pig smooth muscle): inhibits
inhibition of PAF-induced platelet aggregation (rabbit platelets): inhibits
inhibition of PAF-induced peritoneal PMN aggregation [3]: inhibits
